Tests used:
[1] = test system: UV-induced squamous cell carcinoma (SCC), actinic keratosis (AK), or pre-AK lesions; experiment: UV-induced epidermal neoplasia in SKH-1 mice, Example 1 (UV and IRM dosing initiated simultaneously, 15 weeks); type: in vivo; conditions: 0.1% formulation in Vehicle 1, topical twice per week, UV five days per week for 15 weeks
Description: (§1) Female SKH-1 mice 9-10 weeks old were obtained from Charles River (Raleigh, N.C.) and housed in a room with controlled temperatures and humidity and alternating 12-hour light and dark cycles. The room is lit with fluorescent lights covered by yellow sleeves from EncapSulite International, Inc. (Rosenberg, Tex.) to eliminate all ambient UV radiation. The mice were fed with a 12% Corn Oil Purified Diet from Purina Test Diet (Richmond, Va.) and water, ad libitum. […]
(§2) Mice were placed in a standard plexiglass rat cage, 9-10 at a time, that was separated into 12 individual compartments with plexiglass dividers and placed on a shelf 14 inches below the light source without wire cage tops. […] The lights emit UVB (21%) and UVA (79%) light with a peak wavelength of 313 nm, as measured using a radiometer Model PMA 2200 from Solar Light Company (Philadelphia, Pa.) with a PMA 2101 detector for UVB and PMA2110 detector for UVA.
(§3) The dose of UVB irradiation was measured by MED (minimal erythemal dose). […]
(§4) All mice were distinguished from one another by a tattoo placed on the tail. The development and appearance of tumors were noted weekly and recorded starting at about 14-18 weeks. […]

[2] = test system: UV-induced squamous cell carcinoma (SCC), actinic keratosis (AK), or pre-AK lesions; experiment: UV-induced epidermal neoplasia in SKH-1 mice, Example 3 (simultaneous initiation, 18 weeks); type: in vivo; conditions: for % Disease: topical twice per week, UV five days per week for 18 weeks; for Avg. Disease Score: twice per week, UV 18 weeks, SCC + AK + pre-AK lesion score (Table 5)
Description: Female SKH-1 mice 9-10 weeks old were obtained from Charles River (Raleigh, N.C.) and housed in a room with controlled temperatures and humidity and alternating 12-hour light and dark cycles. The room is lit with fluorescent lights covered by yellow sleeves from EncapSulite International, Inc. (Rosenberg, Tex.) to eliminate all ambient UV radiation. The mice were fed with a 12% Corn Oil Purified Diet from Purina Test Diet (Richmond, Va.) and water, ad libitum. The animals were maintained in facilities approved by the Association for the Assessment and Accreditation of Laboratory Animal Care International and in accordance with current United States Department of Agriculture, Department of Health and Human Services, and National Institutes of Health regulations and standards.
A small group of mice were not exposed to UV and were used as negative controls. The other mice were chronically UV irradiated. After randomization the mice were lightly anesthetized with halothane and adjustable collars made of hook and loop fastener approximately 10 mm wide and 70 mm long were placed around the mouse's neck to prevent oral ingestion of the IRM. Unless otherwise indicated, thirty minutes before UV exposure mice were topically dosed with 30 μL of either (1) vehicle formulation, (2) IRM formulation, or (3) an SPF 30 sunscreen (NEUTROGENA SPF30 Sunblock with PARSOL 1789), two times per week for a total of 15-18 weeks on the dorsal surface in an area approximately 6 cm^2. Approximately four hours after dosing, the topical treatment (i.e, vehicle formulation; IRM formulation, or sunscreen) was washed off using a dilute soap solution.
Mice were placed in a standard plexiglass rat cage, 9-10 at a time, that was separated into 12 individual compartments with plexiglass dividers and placed on a shelf 14 inches below the light source without wire cage tops. The mice were exposed to UV radiation 5 times per week (Monday thru Friday) for an average of 15-18 weeks. The UV radiation was provided by a bank of six FS40 lamps (National Biological Corporation, Twinsburg, Ohio), filtered by a Kodacel filter (140 μm thick K6808 cellulose triacetate film; Eastman Kodak, Rochester, N.Y.) that transmits radiation having a wavelength from about 293 nm to about 400 nm. The Kodacel filter was aged 4-6 hours before use. The lights emit UVB (21%) and UVA (79%) light with a peak wavelength of 313 nm, as measured using a radiometer Model PMA 2200 from Solar Light Company (Philadelphia, Pa.) with a PMA 2101 detector for UVB and PMA2110 detector for UVA.
The dose of UVB irradiation was measured by MED (minimal erythemal dose). By using MED, a relatively constant incident dose of UV was maintained over time. The initial dose of UVB to the mice was 12.6 mJ/cm^2 (0.6 MED) and the average total dose of UVB was 3000-5200 mJ/cm^2. An increase of 10-20% of the MED dose per week was needed due to acclimation of the mice.
All mice were distinguished from one another by a tattoo placed on the tail. The development and appearance of tumors were noted weekly and recorded starting at about 14-18 weeks.
Formulations of IRM1 and IRM2 were prepared using Vehicle 1. UV dosing and IRM dosing were initiated simultaneously. UV dosing was performed five days per week for 18 weeks.
After 18 weeks, the mice were subjected to gross inspection to determine the presence of a disease state, i.e., squamous cell carcinoma (SCC), actinic keratosis (AK), or pre-AK lesions.
The disease state of each mouse was scored by measuring the size and/or number of lesions present on the mouse. SCC lesions and AK lesions of at least 1 mm in diameter were given a score of 1.
The SCC lesion score, AK lesion score, and the pre-AK lesion score (according to Table 5) were added to provide a total disease score for each mouse. Table 6 includes the average disease score for all of the mice in each treatment group.

[3] = test system: UV-induced squamous cell carcinoma (SCC), actinic keratosis (AK), or pre-AK lesions; experiment: UV-induced epidermal neoplasia in SKH-1 mice, Example 2 (UV dosing six weeks before IRM dosing, 15 weeks); type: in vivo; conditions: topical twice per week, UV for six weeks before IRM dosing, UV five days per week for 15 weeks
Description: as §1, §2, §3, §4

[4] = test system: actinic keratosis (AK) lesions; experiment: Clinical treatment of actinic keratosis lesions and recurrence at follow-up, Example 5; type: in vivo
Experimental: Subjects with four to eight clinically typical, visible, discrete actinic keratosis (AK) lesions in a 25 cm^2 treatment area were randomized in a 1:1 ratio to receive either a 5% cream formulation of IRM14 (ALDARA, 3M Company, St. Paul, Minn.) or vehicle cream once daily three days per week. Subjects received treatment for sixteen weeks even if clinical evidence of lesion clearance was observed. Subjects were evaluated at an Evaluation visit eight weeks after the treatment period concluded.
Subjects were instructed to administer a single application of cream (vehicle or IRM14, as assigned) to the treatment area at approximately the same time of day three days per week. The subjects were instructed to wash the treatment area prior to applying the cream, rub the cream into the treatment area, and then leave the cream in place for at least eight hours without occlusion.
Subjects with no (zero) clinically visible AK lesions in the 25 cm^2 treatment area at the Evaluation visit were considered complete responders. 117 of 242 (48.3%) subjects receiving IRM14 were complete responders; 18 of 250 (7.2%) vehicle-treated subjects were complete responders.
Complete responders were re-evaluated for recurrence of AK lesions at a Follow-up visit between 12 and 18 months after the Evaluation visit. Subjects received no IRM14 treatment between the Evaluation visit and the Follow-up visit. […]

cytokines = experiment: Induction of production and secretion of cytokines

Compound	% Disease (percentage of mice exhibiting a disease state) [1] [%]	% Disease ([2]; 0.01% formulation) [%]	Avg. Disease Score ([2]; 0.01% formulation)	% Disease ([2]; 0.1% formulation) [%]	Avg. Disease Score ([2]; 0.1% formulation)	% Disease ([3]; 0.1% formulation) [%]	% Disease ([3]; 1.0% formulation) [%]	complete responders (no clinically visible AK lesions in the 25 cm^2 treatment area at the Evaluation visit) ([4]; 5% cream once daily three days per week for sixteen weeks, evaluated eight weeks after treatment, 117 of 242 subjects) [%]	AK Recurrence Rate ([4]; complete responders at Follow-up visit 12 to 18 months after Evaluation visit, no treatment in between, 77 IRM14-treated) [%]	induction of production and secretion of cytokines (cytokines)
CC(C)Cn1cnc2c(N)nc3cccnc3c21 [IRM1, 1-(2-methylpropyl)-1H-imidazo[4,5-c][1,5]naphthyridin-4-amine]	0	71	2.86 ± 0.82	50	0.66 ± 0.33	–	–	–	–	–
Cc1nc2c(N)nc3cccnc3c2n1CC(C)C [IRM2, 2-methyl-1-(2-methylpropyl)-1H-imidazo[4,5-c][1,5]naphthyridin-4-amine]	11	71	4.86 ± 1.81	25	0.6 ± 0.42	63	50	–	–	–
CC(C)Cn1cnc2c(N)nc3ccccc3c21 [IRM14, 1-(2-methylpropyl)-1H-imidazo[4,5-c]quinolin-4-amine]	–	–	–	–	–	–	–	48.3	24.7	–
CC(C)Cn1cnc2c(=O)[nH]c3ccccc3c21 [non-IRM, 1,5-dihydro-1-(2-methylpropyl)-4H-imidazo[4,5-c]quinolin-4-one]	–	–	–	–	–	–	–	–	–	does not induce the production and secretion of cytokines
